Measured values reported in patent US11016085B2, “ZNT8 assays for drug development and pharmaceutical compositions” (THE JOHNS HOPKINS UNIVERSITY, priority 2016, dated 2021).
“Also recorded” adds a separate entry of the source.

Experiments:
human ZnT8 R325 (R-form) = target: T1, human ZnT8 R325 (R-form) (Homo sapiens, UniProt Q8IWU4); assay: Stopped-flow zinc transport kinetics in reconstituted proteoliposomes (Fluozin-3), R325 variant; assay type: biochemical; conditions: for effect on zinc transport activity (Vmax), R-form: lipid in reconstituted proteoliposomes, reference level = Vmax of the AA-form; for increase of Vmax, R-form: third anionic phospholipid added to DOPC:DOPE (2:1), giving 2:1:1
T1 construct: The human ZnT8 cDNA insert was further subcloned into a pcDNA5/FRT/TO expression vector; made in house
T1 sequence (Q8IWU4 1-320 isoform Q8IWU4-2): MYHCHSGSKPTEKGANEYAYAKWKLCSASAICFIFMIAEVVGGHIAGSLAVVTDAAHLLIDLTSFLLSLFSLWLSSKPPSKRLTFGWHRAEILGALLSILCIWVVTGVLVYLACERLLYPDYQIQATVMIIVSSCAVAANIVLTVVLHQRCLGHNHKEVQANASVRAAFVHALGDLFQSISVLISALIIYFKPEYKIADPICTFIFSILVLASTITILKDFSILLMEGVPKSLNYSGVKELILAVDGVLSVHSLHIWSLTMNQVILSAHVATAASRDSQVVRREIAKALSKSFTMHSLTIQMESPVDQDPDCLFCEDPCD
Experimental: (§1) 24 hour after induction, early-passage cells (passage number <10) at 90% confluence were scraped on ice and collected in the assay buffer supplemented with complete mini EDTA free protease cocktail tablets as specified by the manufacturer (Sigma). Cell suspension was homogenized by 40 passages through a high-shear fluid processor at 120 psi (Microfluidics), and then the membrane fraction was pelleted by ultracentrifugation at 258k×g for 60 min. The membrane pellet was re-suspended in a solubilization buffer (assay buffer plus 25% glycerol). DDM was added to solubilize the membrane according to the weight of the membrane pellet at a DDM-to-membrane ratio of 1:5 (wt/wt). The membrane crude extract was cleared off debris by ultracentrifugation at 258k×g for 15 min. The supernatant was applied to Talon affinity resins (GE Healthcare) and incubated at 8° C. on a rotary shaker for 45 min. The resin was then minimally washed by solubilization buffer supplemented with 25 mM imidazole, and then the immobilized ZnT8 variant was eluted by increasing the imidazole concentration to 250 mM. The molecular identity of the eluted ZnT8 variant was validated by western blotting using two antibodies to the C-terminal His-tag (Cell signaling Technology, cat. #2365S, catalog number, 1:1000 dilution) and to a linear peptide epitope (Proteintech, cat. #16169-1-AP, 1:500 dilution), respectively. The purity of the eluted proteins was assessed by SDS-PAGE with imperial protein staining (Thermo Scientific). Preformed liposomes with a defined lipid composition as indicated were prepared by mixing stock solutions of lipids in chloroform. The lipid mixture was dried under a stream of nitrogen gas, and traces of chloroform were removed by placing the lipids under vacuum overnight at room temperature. Dried lipids were rehydrated in a Pyrex borosilicate glass tube with assay buffer to a lipid concentration of 50 mg/ml, and then sonicated in a cup-horn sonicator at 100 W for 2 min (cycles of 10 son, 10 s off) in an ice-chilled water bath. The resulting liposome suspension was diluted with assay buffer to a final lipid concentration of 7.5 mg/ml with DDM added at a DDM/lipids ratio of 1:1 (wt/wt). The DDM-liposome mixture was incubated at room temperature on a rotary shaker for ˜3 hours until a gel-like appearance occurred. Reconstitution of ZnT8 variants took place immediately after eluted from Talon resins by mixing a ZnT8 variant, or an equal volume of elution buffer, with DDM-destabilized preformed liposomes at an estimated protein-to-lipid wt/wt ratio of 1:200. The reconstitution mixture was incubated on a rotary shaker at 8° C. for 1 hr, then freshly prepared, methanol-washed polystyrene beads (Bio-Beads, SM-2, Bio-Rad) were added to the reconstitution mixture in a 60:1 wt/wt ratio to DDM. After incubation overnight at 8° C., the resulting proteoliposomes or liposomes (negative control) were separated from the detergent-soaked polystyrene beads, and pelleted by ultracentrifugation (258k×g, 2 hr). […]
(§2) Experiments were performed at 8° C. on a SFM-3000 stopped-flow apparatus (Bio-logic). […] The reactants were excited at 490 nm, and emissions were monitored at 525 nm using a 10 nm bandpass cut-off filter. Kinetic traces were recorded over a time course of 10 seconds with instrument offset and gain kept constant for all the experiments. […]

human ZnT8 W325 (W-form) = target: T2, human ZnT8 W325 (W-form) (Homo sapiens, UniProt Q8IWU4, R325W); assay: Stopped-flow zinc transport kinetics in reconstituted proteoliposomes (Fluozin-3), W325 variant; assay type: biochemical; conditions: for effect on zinc transport activity (Vmax), W-form: lipid in reconstituted proteoliposomes, reference level = Vmax of the AA-form; for increase of Vmax, W-form: third anionic phospholipid added to DOPC:DOPE (2:1), giving 2:1:1
T2 construct: The human ZnT8 cDNA insert was further subcloned into a pcDNA5/FRT/TO expression vector; made in house
T2 sequence (Q8IWU4 1-320 isoform Q8IWU4-2 R276W): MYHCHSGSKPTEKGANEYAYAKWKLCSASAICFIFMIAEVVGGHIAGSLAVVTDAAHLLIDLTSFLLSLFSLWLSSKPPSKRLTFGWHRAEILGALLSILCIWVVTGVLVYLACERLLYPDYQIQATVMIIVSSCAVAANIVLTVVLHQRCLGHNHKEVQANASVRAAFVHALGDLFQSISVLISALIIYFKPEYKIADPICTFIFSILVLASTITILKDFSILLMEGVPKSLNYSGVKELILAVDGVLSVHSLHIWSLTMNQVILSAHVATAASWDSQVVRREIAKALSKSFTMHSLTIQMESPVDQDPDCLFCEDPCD
Experimental: as §1, §2

[1] = target: T3, human ZnT8 AA-form (H220A, D224A) (Homo sapiens, UniProt Q8IWU4, D224A/H220A); assay: Stopped-flow zinc transport kinetics in reconstituted proteoliposomes (Fluozin-3), AA-form; assay type: biochemical
T3 construct: The human ZnT8 cDNA insert was further subcloned into a pcDNA5/FRT/TO expression vector; made in house
T3 sequence (Q8IWU4 1-320 isoform Q8IWU4-2 H171A/D175A): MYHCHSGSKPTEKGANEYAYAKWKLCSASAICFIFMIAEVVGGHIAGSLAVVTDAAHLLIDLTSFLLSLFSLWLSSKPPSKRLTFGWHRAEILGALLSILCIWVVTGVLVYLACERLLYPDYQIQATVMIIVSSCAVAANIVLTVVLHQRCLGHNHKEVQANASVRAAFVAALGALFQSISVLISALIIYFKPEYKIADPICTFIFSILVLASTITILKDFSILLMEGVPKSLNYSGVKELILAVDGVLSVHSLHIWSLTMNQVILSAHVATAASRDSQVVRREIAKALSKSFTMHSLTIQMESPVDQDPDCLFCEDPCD
Experimental: 24 hour after induction, early-passage cells (passage number <10) at 90% confluence were scraped on ice and collected in the assay buffer supplemented with complete mini EDTA free protease cocktail tablets as specified by the manufacturer (Sigma). Cell suspension was homogenized by 40 passages through a high-shear fluid processor at 120 psi (Microfluidics), and then the membrane fraction was pelleted by ultracentrifugation at 258k×g for 60 min. The membrane pellet was re-suspended in a solubilization buffer (assay buffer plus 25% glycerol). DDM was added to solubilize the membrane according to the weight of the membrane pellet at a DDM-to-membrane ratio of 1:5 (wt/wt). The membrane crude extract was cleared off debris by ultracentrifugation at 258k×g for 15 min. The supernatant was applied to Talon affinity resins (GE Healthcare) and incubated at 8° C. on a rotary shaker for 45 min. […] The purity of the eluted proteins was assessed by SDS-PAGE with imperial protein staining (Thermo Scientific). […]
as §2

HEK293 cells = assay: Vesicular zinc uptake in real time (Zinpyr-1, 96-well microplate); assay type: cell-based, human; conditions: 383 nM free zinc, 1 uM pyrithione, 15° C., induced expression
Experimental: The free zinc concentration in the ADA-EGTA dual buffering system was calculated using maxchelator (maxchelator.stanford.edu). Induced cells were loaded with Zinpry-1, trypsinized, resuspended in an ice-chilled plain uptake buffer with no ZnSO4 added. Cells with the expression of each ZnT8 variant or the empty vector were counted, adjusted to a density of 4×10^6 cells/ml, and dispensed in 50-[…] aliquots to a clear-bottom 96-well microplate (Greiner bio-one). Initial Zinpry-1 fluorescence (F0) was recorded from the bottom on a Flexstation-3 microplate reader (Molecular dynamics), and then zinc-uptakes were initiated by adding 50 ul uptake buffers with 2× free zinc concentrations to each well. The Zinpry-1 fluorescence increases in response to various free zinc concentrations were recorded at 15° C. in the kinetic mode of Flexstation over a time course of 10 min and normalized to Zinpyr-1 loading (F0). The fluorescence responses reached a linear phase in 2 min after the uptake temperature approached equilibrium. The rates of zinc uptake were calculated by linear regression of the Zinpyr-1 signals from 2 to 10 min. All measurements were performed in 12 replicates, and fluorescence readings were obtained by averaging over 8-10 measurements that gave consistent results. Most aberrant measurements occurred in the first and last two columns of the microplate due to pipetting errors.

Molecule | effect on zinc transport activity (Vmax), R-form (human ZnT8 R325 (R-form)) | effect on zinc transport activity (Vmax), W-form (human ZnT8 W325 (W-form)) | increase of Vmax, R-form (human ZnT8 R325 (R-form)) | increase of Vmax, W-form (human ZnT8 W325 (W-form)) | further results
CCCCCCCC/C=C\CCCCCCCC(=O)OC[C@H](COP(=O)(O)OCCN)OC(=O)CCCCCCC/C=C\CCCCCCCC [DOPE, 1,2-di-(9Z-octadecenoyl)-sn-glycero-3-phosphoethanolamine] | progressively reduced the Vmax | modest effects |  |  | 
CCCCCCCC/C=C\CCCCCCCC(=O)OC[C@H](COP(=O)(O)OCC(O)CO)OC(=O)CCCCCCC/C=C\CCCCCCCC (stereo partly shown) [DOPG] |  |  | 6.1 fold | 2.0 fold | 
CCCCCCCC/C=C\CCCCCCCC(=O)OC[C@H](COP(=O)(O)OC[C@H](N)C(=O)O)OC(=O)CCCCCCC/C=C\CCCCCCCC [DOPS, 1,2-dioleoyl-sn-glycero-3-phospho-L-serine] |  |  | 3.5 fold | 2.3 fold | 
CC(C)CCC[C@@H](C)[C@H]1CC[C@H]2[C@@H]3CC=C4C[C@@H](O)CC[C@]4(C)[C@H]3CC[C@]12C [cholesterol] | below the reference level of the AA-form; also recorded: strongly inhibit | below the reference level of the AA-form; also recorded: strongly inhibit |  |  | 
Lysophosphatidylcholine [LPC] | below the reference level of the AA-form; also recorded: strongly inhibit | below the reference level of the AA-form; also recorded: strongly inhibit |  |  | 
AA-form: His-tagged human ZnT8 with H220A, D224A double mutation of the predicted transport-site (protein, UniProt Q8IWU4 1-369, looked up, variant H220A D224A, His tag, His-tagged human ZnT8 with H220A, D224A double mutation of the predicted transport-site) Proton-coupled zinc …: MEFLERTYLVNDKAAKMYAFTLESVELQQKPVNKDQCPRERPEELESGGMYHCHSGSKPTEKGANEYAYAKWKLCSASAICFIFMIAEVVGGHIAGSLAVVTDAAHLLIDLTSFLLSLFSLWLSSKPPSKRLTFGWHRAEILGALLSILCIWVVTGVLVYLACERLLYPDYQIQATVMIIVSSCAVAANIVLTVVLHQRCLGHNHKEVQANASVRAAFVAALGALFQSISVLISALIIYFKPEYKIADPICTFIFSILVLASTITILKDFSILLMEGVPKSLNYSGVKELILAVDGVLSVHSLHIWSLTMNQVILSAHVATAASRDSQVVRREIAKALSKSFTMHSLTIQMESPVDQDPDCLFCEDPCD |  |  |  |  | Km increase compared to the R-form [1]: 24 fold; Vmax/Km decrease compared to the R-form [1]: 59 fold; rate of vesicular zinc accumulation (HEK293 cells): significantly faster than the basal level of Blk
